Among the data in PubChem BioAssay AID1259407 (Chemical Carcinogenesis Research Information System (CCRIS), 2018) are mutagenic call values, retold here.

Active and inactive are the calls of the source. How the calls were made is not given here.

In this series the test system is CCRIS mutagenicity, Ames/micronucleus/aberration tests. The series can be described thus: CCRIS mutagenicity studies. As to conditions: Test System: AMES SALMONELLA TYPHIMURIUM
From the text: The CCRIS database contains chemical records with carcinogenicity, mutagenicity, tumor promotion, and tumor inhibition test results. It was developed by the National Cancer Institute (NCI). Data are derived from studies cited in primary journals, current awareness tools, NCI reports, and other sources. Test results have been reviewed by experts in carcinogenesis and mutagenesis.
CCRIS provides historical information from the years 1985 - 2011. It is no longer updated.
This is an archive assay for CCRIS mutagenicity studies.

The mark [1] stands for this setting: Strain/Indicator: TA98, Metabolic Activation: NONE, Method: STANDARD PLATE.
The mark [2] stands for this setting: Strain/Indicator: TA100, Metabolic Activation: NONE, Method: STANDARD PLATE.
Where [3] appears, read: Strain/Indicator: TA1535, Metabolic Activation: NONE, Method: STANDARD PLATE.
Where [4] appears, read: Strain/Indicator: TA100, Metabolic Activation: NONE, Method: PREINCUBATION

With `COc1cc([C@H]2OC[C@H]3[C@@H]2CO[C@@H]3c2cc(OC)c(OC)c(OC)c2)cc(OC)c1OC`, the mutagenic call is, setting by setting: (Strain/Indicator: TA97A, Metabolic Activation: NONE, Method: STANDARD PLATE) “inactive; negative”; (Strain/Indicator: TA97A, Metabolic Activation: RAT LIVER S-9 (AROCLOR), Method: STANDARD PLATE) “inactive; negative”; under setting [1], “inactive; negative”; (Strain/Indicator: TA98, Metabolic Activation: RAT LIVER S-9 (AROCLOR), Method: STANDARD PLATE) “inactive; negative”; under setting [2], “inactive; negative”; (Strain/Indicator: TA100, Metabolic Activation: RAT LIVER S-9 (AROCLOR), Method: STANDARD PLATE) “inactive; negative”. In addition, the mutagenic call runs as follows: (Strain/Indicator: TA102, Metabolic Activation: NONE, Method: STANDARD PLATE) “inactive; negative”; (Strain/Indicator: TA102, Metabolic Activation: RAT LIVER S-9 (AROCLOR), Method: STANDARD PLATE) “inactive; negative”; under setting [3], “inactive; negative”; (Strain/Indicator: TA1535, Metabolic Activation: RAT LIVER S-9 (AROCLOR), Method: STANDARD PLATE) “inactive; negative”.
For `OCC(O)CCl` (stereo not given), the mutagenic call runs as follows: (Strain/Indicator: TA97, Metabolic Activation: HAMSTER, LIVER, S-9, AROCLOR 1254 (10%), Method: PREINCUBATION) “inactive; negative”; (Strain/Indicator: TA97, Metabolic Activation: RAT, LIVER, S-9, AROCLOR 1254 (10%), Method: PREINCUBATION) “inactive; negative”; (Strain/Indicator: TA98, Metabolic Activation: HAMSTER, LIVER, S-9, AROCLOR 1254 (10%), Method: PREINCUBATION) “inactive; negative”; (Strain/Indicator: TA98, Metabolic Activation: RAT, LIVER, S-9, AROCLOR 1254 (10%), Method: PREINCUBATION) “inactive; negative”; (Strain/Indicator: TA98, Metabolic Activation: RAT, LIVER, S-9, KANECHLOR 500, Method: PREINCUBATION) “inactive; negative”; (Strain/Indicator: TA100, Metabolic Activation: HAMSTER, LIVER, S-9, AROCLOR 1254 (10%), Method: PREINCUBATION) “active; positive”. Moreover, the mutagenic call under setting [4] is “active; positive”; the mutagenic call (Strain/Indicator: TA100, Metabolic Activation: RAT, LIVER, S-9, AROCLOR 1254 (10%), Method: PREINCUBATION) was “active; positive”; the mutagenic call (Strain/Indicator: TA100, Metabolic Activation: RAT, LIVER, S-9, KANECHLOR 500, Method: PREINCUBATION) was “inactive; negative”; the mutagenic call (Strain/Indicator: TA1535, Metabolic Activation: HAMSTER, LIVER, S-9, AROCLOR 1254 (10%), Method: PREINCUBATION) was “active; positive”; the mutagenic call (Strain/Indicator: TA1535, Metabolic Activation: NONE, Method: PREINCUBATION) was “active; positive”; the mutagenic call (Strain/Indicator: TA1535, Metabolic Activation: RAT, LIVER, S-9, AROCLOR 1254 (10%), Method: PREINCUBATION) is “active; positive”.
For the molecule `C=C1C[C@@]23CC[C@H]4[C@@](C)(CCC[C@@]4(C)C(=O)O)[C@@H]2CC[C@]1(O[C@@H]1O[C@H](CO)[C@@H](O)[C@H](O[C@@H]2O[C@H](CO)[C@@H](O)[C@H](O)[C@H]2O)[C@H]1O[C@@H]1O[C@H](CO)[C@@H](O)[C@H](O)[C@H]1O)C3`, the mutagenic call (Strain/Indicator: TM677, Metabolic Activation: RAT, LIVER, S-9, AROCLOR 1254, Method: PREINCUBATION) is “inactive; negative”.
With `Cc1cc2nc3c(ccc4ccccc43)c(C)c2cc1C`, the mutagenic call was “active; positive” (Strain/Indicator: TA97A, Metabolic Activation: NONE, Method: PREINCUBATION); “inactive; negative” (Strain/Indicator: TA98, Metabolic Activation: NONE, Method: PREINCUBATION); “inactive; negative” under setting [4]; “active; positive” (Strain/Indicator: TA102, Metabolic Activation: NONE, Method: PREINCUBATION).
In the case of `CC(N)(CN=[N+]=[N-])C(=O)O` (stereo not given), the mutagenic call (Strain/Indicator: TA1530, Metabolic Activation: NONE, Method: STANDARD PLATE) was “active; positive”.
Regarding `OCCNc1ccc(N=Nc2ccc(N(CCO)CCO)cc2)cc1`, the mutagenic call is “inactive; negative” (Strain/Indicator: TA98, Metabolic Activation: HAMSTER, LIVER, S-9, AROCLOR 1254, Method: STANDARD PLATE); “inactive; negative” under setting [1]; “inactive; negative” (Strain/Indicator: TA98, Metabolic Activation: RAT, LIVER, S-9, AROCLOR 1254, Method: PREINCUBATION); “inactive; negative” (Strain/Indicator: TA98, Metabolic Activation: RAT, LIVER, S-9, AROCLOR 1254, Method: STANDARD PLATE); “inactive; negative” under setting [2]; “inactive; negative” (Strain/Indicator: TA100, Metabolic Activation: RAT, LIVER, S-9, AROCLOR 1254, Method: STANDARD PLATE). For the same molecule, the mutagenic call by setting is: under setting [3], “inactive; negative”; (Strain/Indicator: TA1535, Metabolic Activation: RAT, LIVER, S-9, AROCLOR 1254, Method: STANDARD PLATE) “inactive; negative”; (Strain/Indicator: TA1537, Metabolic Activation: NONE, Method: STANDARD PLATE) “inactive; negative”; (Strain/Indicator: TA1537, Metabolic Activation: RAT, LIVER, S-9, AROCLOR 1254, Method: STANDARD PLATE) “inactive; negative”; (Strain/Indicator: TA1538, Metabolic Activation: NONE, Method: STANDARD PLATE) “inactive; negative”; (Strain/Indicator: TA1538, Metabolic Activation: RAT, LIVER, S-9, AROCLOR 1254, Method: STANDARD PLATE) “inactive; negative”.
